Results reported in patent US6071908A (priority 1995, dated 2000).
Where a name gives a salt, the structure may show the parent alone. Read-outs that look alike come from different tables or passages of the source.

Columns and labels:
[1] = test system: UV4 cells; experiment: cells; assay type: cell-based; settings: Cricetulus griseus
[2] = test system: SKOV3 cells; experiment: cells; assay type: cell-based; settings: Homo sapiens
[3] = UV4, light or radiation study, 4 h, read-out: IC50, P (unirradiated prodrug)
[4] = UV4, 4 h, read-out: IC50, E (authentic effector)
[5] = SK-OV-3, light or radiation study, 4 h, read-out: IC50, P (unirradiated prodrug)
[6] = SK-OV-3, 4 h, read-out: IC50, E (authentic effector)

Structure (SMILES)	IC50 [1, 3]	IC50 [1, 4]	IC50 [2, 5]	IC50 [2, 6]
C[N+](C)(Cc1ccc([N+](=O)[O-])cc1)c1ccc2c(c1)N(S(C)(=O)=O)CC2CCl (centres unmarked) [Compound 11, 3-(chloromethyl)-6-[N,N-dimethyl-N-(4-nitrobenzyl)-ammonio]-1-(methanesulfonyl)indoline chloride]	1140 ± 122 µM			
CN(C)c1ccc2c(c1)N(S(C)(=O)=O)CC2CCl (centres unmarked) [Compound 12, reference compound]		15 ± 6 µM		
C[N+](C)(CCNC(=O)c1cccc2cc3ccccc3nc12)Cc1ccc([N+](=O)[O-])cc1 [Compound 15, 2-[N-(acridin-4-yl)carbonyl]aminoethyl-(dimethyl)-4-nitrobenzylammonium bromide]	> 150 µM		> 150 µM	
C[N+](C)(CCNC(=O)c1cccc2cc3ccccc3nc12)Cc1ccc([N+](=O)[O-])s1 [Compound 16, 2-[N-(acridin-4-yl)carbonyl]aminoethyl-(dimethyl)-(5-nitro-2-thienyl)methylammonium chloride]	40 ± 8 µM		169 ± 58 µM	
Cc1cccc2c(N)c3cccc(C(=O)NCC[N+](C)(C)Cc4ccc([N+](=O)[O-])cc4)c3nc12 [Compound 17, 2-[N-(9-amino-5-methylacridin-4-yl)carbonyl]aminoethyl-(dimethyl)-4-nitrobenzylammonium bromide]	0.78 µM		4 ± 0.1 µM	
Cc1cccc2c(N)c3cccc(C(=O)NCC[N+](C)(C)Cc4ccccc4[N+](=O)[O-])c3nc12 [Compound 18, 2-[N-(9-amino-5-methylacridin-4-yl)carbonyl]aminoethyl-(dimethyl)-2-nitrobenzyl]ammonium chloride]	3.1 µM			
Cc1cccc2c(N)c3cccc(C(=O)NCC[N+](C)(C)Cc4ccc([N+](=O)[O-])s4)c3nc12 [Compound 19, 2-[N-(9-amino-5-methylacridin-4-yl)carbonyl]aminoethyl-(dimethyl)-5-nitro-2-thienylmethylammonium chloride]	0.16 ± 0.03 µM			
Cc1cccc2c(N)c3cccc(C(=O)NCC[N+](C)(C)Cc4nc(N5CCOCC5)sc4[N+](=O)[O-])c3nc12 [Compound 20, 2-[N-(9-amino-5-methylacridin-4-yl)carbonyl]aminoethyl-(dimethyl)-2-[4-morpholino-5-nitro-4-thiazolylmethyl]ammonium chloride]	1 ± 0.3 µM			
Cc1cccc2c(N)c3cccc(C(=O)NCC[N+](C)(C)Cc4ccc([N+](=O)[O-])n4C)c3nc12 [Compound 21, 2-(N-[9-amino-5-methylacridin-5-yl]carbonyl)aminoethyl-(dimethyl)[1-methyl-5-nitro-2-pyrrolyl]methylammonium chloride]	2 ± 0.4 µM			
Cc1cccc2c(N)c3cccc(C(=O)NCC[N+](C)(C)Cc4c([N+](=O)[O-])ncn4C)c3nc12 [Compound 22, 2-(N-[9-amino-5-methylacridin-4-yl]carbonyl)aminoethyl-(dimethyl)-(1-methyl-4-nitro-5-imidazolyl)methylammonium chloride]	1.9 ± 0.4 µM			
CN(C)CCNc1ccc(NCC[N+](C)(C)Cc2ccc([N+](=O)[O-])cc2)c2c1C(=O)c1c(O)ccc(O)c1C2=O [Compound 27, 1-[(2-(4-nitrobenzyl)dimethylammonium)ethylamino]-4-[(2-dimethylamino)ethylamino]-5,8-dihydroxy-9,10-anthracenedione chloride]	0.27 ± 0.04 µM		9.7 µM	
CN(C)CCNC(=O)c1cccc2cc3ccccc3nc12 [Compound 37, N-[(dimethylamino)ethyl]acridine-4-carboxamide, reference compound]		0.49 ± 0.11 µM		3.4 ± 0.8 µM
Cc1cccc2c(N)c3cccc(C(=O)NCCN(C)C)c3nc12 [Compound 38, (N,N-dimethylaminoethyl)-9-amino-5-methylacridine-4-carboxamide, reference compound]		0.011 µM		0.046 ± 0.002 µM
CN(C)CCNc1ccc(NCCN(C)C)c2c1C(=O)c1c(O)ccc(O)c1C2=O [Compound 46, 1,4-bis[(2-dimethylamino)-ethylamino]-5,8-dihydroxy-9,10-anthracenedione, reference compound]		0.0021 µM		0.074 ± 0.0004 µM
NCCNCCCNC(=O)c1cccc2cc3ccccc3nc12 [Compound 47, N-[3-[(2-Aminoethyl)amino]propyl]acridine-4-carboxamide trihydrochloride, reference compound]		1.6 ± 0.4 µM		1.6 ± 0.3 µM
